Test results as given in patent publication US12606528B2, “Methods and materials for inhibiting NF-kB activity” (University of Pittsburgh - Of the Commonwealth System of …, priority 2019, dated 2026).
Read-outs that look alike come from different tables or passages of the source.

Experiments:
[1] = system: TNF release; experiment: TNF assay: TNF release from LPS-stimulated human PBMCs (TNF ELISA); assay type: cell-based; details: PBMC, read-out: IC50 (TNF assay)
Summary of the method: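 Human PBMCs at 10k/well pretreated with compound dilutions 2 h, then stimulated with LPS (10 ng/mL) for 18 h. TNF in supernatants quantified by ELISA; IC50 for inhibition of TNF release fitted from concentration–response.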

[2] = system: NF-κB; experiment: NF-κB assay: THP1-NF-κB-LUC cells, LPS-stimulated secreted luciferase; assay type: cell-based; details: THP1-NF-κB-LUC cells, read-out: IC50 (NF-κB assay)
Summary of the method: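 THP1-NF-κB-LUC cells (25k/well) were pretreated with compounds for 2 h, then stimulated with LPS (10 ng/mL) for 18 h. Secreted luciferase was measured and normalized to vehicle, and IC50 was fitted from the concentration series.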

[3] = LPS-stimulated human PBMCs, TNF ELISA
[4] = human PBMCs, compounds 2 hours before LPS (10 ng/ml) for 18 hours, supernatant TNF ELISA
[5] = compounds 2 hours before LPS (10 ng/mL) for 18 hours, secreted luciferase

Compound	IC50 [1, 3] [µM]	IC50 ([2]; LPS-stimulated) [µM]	IC50 [1, 4] [µM]	IC50 [2, 5] [µM]
CN1CCN(C(=O)c2ccc3nc(-c4ccc(F)cc4)c(Nc4ccc(F)cc4)nc3c2)CC1 [BC19578]	> 10	> 10		
O=c1[nH]ccc2cc(S(=O)(=O)c3ccccc3)ccc12 [BC19579]			> 10	> 10
O=c1[nH]ccc2cc(Sc3ccc(F)cc3)ccc12 [BC19580]			> 10	> 10
CC(C)S(=O)(=O)c1[nH]c(-c2ccccc2)nc1S(=O)(=O)c1ccc(F)cc1 [BC19581]	> 10	> 10		
CC(C)C[S+]([O-])c1[nH]c(-c2ccccc2)nc1S(=O)(=O)c1ccc(F)cc1 (centres unmarked) [BC19582]	> 10	1 to 10		
O=S(=O)(c1ccc(Cl)cc1)c1nc(-c2cccc(F)c2)sc1S(=O)(=O)C1CCCCC1 [BC19583]	> 10	> 10		
CC(C)[S+]([O-])c1[nH]c(-c2ccccc2)nc1S(=O)(=O)c1ccc(Cl)cc1 (centres unmarked) [BC19584]	> 10	1 to 10		
CCC[S+]([O-])c1[nH]c(-c2ccccc2)nc1S(=O)(=O)c1ccc(F)cc1 (centres unmarked) [BC19585]	> 10	1 to 10		
O=S(=O)(c1ccc(F)cc1)c1nc(-c2ccccc2)[nH]c1[S+]([O-])C1CCCCC1 (centres unmarked) [BC19586]	> 10	1 to 10		
COCCS(=O)(=O)c1sc(-c2cccc(F)c2)nc1S(=O)(=O)c1ccc(F)cc1 [BC19587]	1 to 10	1 to 10		
CC(C)C[S+]([O-])c1sc(-c2cccc(F)c2)nc1S(=O)(=O)c1ccc(F)cc1 (centres unmarked) [BC19588]	> 10	1 to 10		
CCCS(=O)(=O)c1sc(-c2cccc(F)c2)nc1S(=O)(=O)c1ccc(F)cc1 [BC19589]	1 to 10	1 to 10		
CCC[S+]([O-])c1sc(-c2cccc(F)c2)nc1S(=O)(=O)c1ccc(F)cc1 (centres unmarked) [BC19590]	1 to 10	1 to 10		
CC(C)[S+]([O-])c1sc(-c2cccc(F)c2)nc1S(=O)(=O)c1ccc(F)cc1 (centres unmarked) [BC19591]	1 to 10	1 to 10		
O=S(=O)(CC1CC1)c1sc(-c2cccc(F)c2)nc1S(=O)(=O)c1ccc(Cl)cc1 [BC19592]	1 to 10	1 to 10		
CC(C)C[S+]([O-])c1sc(-c2ccc(Cl)cc2)nc1S(=O)(=O)c1ccc(F)cc1 (centres unmarked) [BC19593]	1 to 10	0.1 to 1		
O=S(=O)(c1ccc(F)cc1)c1nc(-c2ccc(Cl)cc2)sc1[S+]([O-])C1CCCCC1 (centres unmarked) [BC19594]	> 10	> 10		
C[S+]([O-])c1sc(-c2cccc(F)c2)nc1S(=O)(=O)c1ccc(F)cc1 (centres unmarked) [BC19595]	0.1 to 1	0.1 to 1		
CS(=O)(=O)c1sc(-c2cccc(F)c2)nc1S(=O)(=O)c1ccc(F)cc1 [BC19596]	1 to 10	0.1 to 1		
O=S(=O)(c1ccc(F)cc1)c1nc(-c2cccc(F)c2)sc1[S+]([O-])CC1CC1 (centres unmarked) [BC19597]	> 10	1 to 10		
O=S(=O)(CC1CC1)c1sc(-c2cccc(F)c2)nc1S(=O)(=O)c1ccc(F)cc1 [BC19598]	1 to 10	1 to 10		
COCC[S+]([O-])c1sc(-c2cccc(F)c2)nc1S(=O)(=O)c1ccc(F)cc1 (centres unmarked) [BC19599]	1 to 10	1 to 10		
CCC[S+]([O-])c1c(S(=O)(=O)c2ccc(F)cc2)nc(-c2ccccc2)n1C (centres unmarked) [BC19600]	> 10	> 10		

Compound	IC50 [1, 3] [µM]	IC50 ([2]; LPS-stimulated) [µM]	IC50 [1, 4] [µM]	IC50 [2, 5] [µM]
CC(C)[S+]([O-])c1c(S(=O)(=O)c2ccc(F)cc2)nc(-c2ccccc2)n1C (centres unmarked) [BC19601]	> 10	> 10		
Cn1c(-c2ccccc2)nc(S(=O)(=O)c2ccc(F)cc2)c1[S+]([O-])CC1CC1 (centres unmarked) [BC19602]	> 10	> 10		
O=C1NCCOc2c1cc(Br)cc2S(=O)(=O)Nc1ccc(Cl)cc1 [BC19603]	> 10	0.1 to 1		
CCc1ccc(NS(=O)(=O)c2cc(Br)cc3c2OCCNC3=O)cc1 [BC19604]	> 10	1 to 10		
CC(C)c1ccc(NS(=O)(=O)c2cc(Br)cc3c2OCCNC3=O)cc1 [BC19605]	> 10	> 10		
COc1ccc(NS(=O)(=O)c2cc(Br)cc3c2OCCNC3=O)cc1 [BC19606]	> 10	1 to 10		
Cc1ccc(NS(=O)(=O)c2cc(Br)cc3c2OCCNC3=O)cc1Cl [BC19607]	> 10	0.1 to 1		
O=C1NCCOc2c1cc(Br)cc2S(=O)(=O)Nc1ccc(F)cc1F [BC19608]	> 10	1 to 10		
CCc1cccc(NS(=O)(=O)c2cc(Br)cc3c2OCCNC3=O)c1 [BC19609]	> 10	1 to 10		
O=C1NCCOc2c1cc(Br)cc2S(=O)(=O)Nc1cccc(F)c1 [BC19610]	> 10	0.1 to 1		
O=C1NCCOc2c1cc(Br)cc2S(=O)(=O)Nc1cccc(Cl)c1 [BC19611]	> 10	< 0.1		
Cc1ccc(NS(=O)(=O)c2cc(Br)cc3c2OCCNC3=O)cc1 [BC19612]	> 10	1 to 10		
O=C1NCCOc2c1cc(Br)cc2S(=O)(=O)Nc1ccc(F)cc1Cl [BC19613]	> 10	> 10		
COc1ccc(NS(=O)(=O)c2cc(Br)cc3c2OCCNC3=O)cc1Cl [BC19614]	> 10	> 10		
N#Cc1ccc(NS(=O)(=O)c2cc(Br)cc3c2OCCNC3=O)cc1 [BC19615]	> 10	0.1 to 1		
CN1CCN(CCNC(=O)Nc2ccc3nc(-c4ccc(F)cc4)c(-c4ccc(F)cc4)nc3c2)CC1 [BC19616]	1 to 10	0.1 to 1		
O=C(NCCCN1CCCC1=O)Nc1ccc2nc(-c3ccc(F)cc3)c(-c3ccc(F)cc3)nc2c1 [BC19617]	> 10	0.1 to 1		
CN1CCN(C(=O)c2ccc3nc(-c4ccc(F)cc4)c(-c4ccc(F)cc4)nc3n2)CC1 [BC19618]	> 10	0.1 to 1		
CNc1ncc(-c2ccc3nc(-c4ccc(F)cc4)c(-c4ccc(F)cc4)nc3c2)o1 [BC19619]	> 10	1 to 10		
CC(C)[S+]([O-])c1sc(-c2cccc(F)c2)nc1S(=O)(=O)c1ccc(Cl)cc1 (centres unmarked) [BC19620]	> 10	> 10		
CCCS(=O)(=O)c1sc(-c2ccc(Cl)cc2)nc1S(=O)(=O)c1ccc(Cl)cc1 [BC19621]	1 to 10	1 to 10		
CC(C)S(=O)(=O)c1sc(-c2ccc(Cl)cc2)nc1S(=O)(=O)c1ccc(Cl)cc1 [BC19622]	1 to 10	1 to 10		
O=S(=O)(c1ccc(Cl)cc1)c1nc(-c2ccc(Cl)cc2)sc1S(=O)(=O)C1CCCCC1 [BC19623]	> 10	> 10		

Compound	IC50 [1, 3] [µM]	IC50 ([2]; LPS-stimulated) [µM]	IC50 [1, 4] [µM]	IC50 [2, 5] [µM]
CCCS(=O)(=O)c1sc(-c2ccccc2)nc1S(=O)(=O)c1ccc(Cl)cc1 [BC19624]	1 to 10	1 to 10		
COCCS(=O)(=O)c1sc(-c2ccccc2)nc1S(=O)(=O)c1ccc(Cl)cc1 [BC19625]	1 to 10	1 to 10		
C[S+]([O-])c1sc(-c2ccccc2F)nc1S(=O)(=O)c1ccc(Cl)cc1 (centres unmarked) [BC19626]	1 to 10	1 to 10		
CCC[S+]([O-])c1sc(-c2ccccc2F)nc1S(=O)(=O)c1ccc(Cl)cc1 (centres unmarked) [BC19627]	> 10	1 to 10		
CCCS(=O)(=O)c1sc(-c2ccccc2F)nc1S(=O)(=O)c1ccc(Cl)cc1 [BC19628]	> 10	> 10		
CC(C)[S+]([O-])c1sc(-c2ccccc2F)nc1S(=O)(=O)c1ccc(Cl)cc1 (centres unmarked) [BC19629]	> 10	> 10		
CC(C)C[S+]([O-])c1sc(-c2ccccc2F)nc1S(=O)(=O)c1ccc(Cl)cc1 (centres unmarked) [BC19630]	1 to 10	> 10		
CC(C)CS(=O)(=O)c1sc(-c2ccccc2F)nc1S(=O)(=O)c1ccc(Cl)cc1 [BC19631]	> 10	1 to 10		
O=S(=O)(c1ccc(Cl)cc1)c1nc(-c2ccccc2F)sc1[S+]([O-])CC1CC1 (centres unmarked) [BC19632]	> 10	> 10		
O=S(=O)(CC1CC1)c1sc(-c2ccccc2F)nc1S(=O)(=O)c1ccc(Cl)cc1 [BC19633]	1 to 10	1 to 10		
Cn1c(-c2ccccc2)nc(S(=O)(=O)c2ccc(F)cc2)c1S(=O)(=O)CC1CC1 [BC19634]	> 10	> 10		
CC(C)[S+]([O-])c1sc(C2CCCCC2)nc1S(=O)(=O)c1ccc(Cl)cc1 (centres unmarked) [BC19635]	> 10	> 10		
CC(C)S(=O)(=O)c1sc(C2CCCCC2)nc1S(=O)(=O)c1ccc(Cl)cc1 [BC19636]	> 10	> 10		
CC(C)C[S+]([O-])c1sc(C2CCCCC2)nc1S(=O)(=O)c1ccc(Cl)cc1 (centres unmarked) [BC19637]	> 10	> 10		
CC(C)CS(=O)(=O)c1sc(C2CCCCC2)nc1S(=O)(=O)c1ccc(Cl)cc1 [BC19638]	> 10	> 10		
O=S(=O)(CC1CC1)c1sc(C2CCCCC2)nc1S(=O)(=O)c1ccc(Cl)cc1 [BC19639]	> 10	> 10		
C[S+]([O-])c1sc(C2CCCCC2)nc1S(=O)(=O)c1ccc(Cl)cc1 (centres unmarked) [BC19640]	> 10	> 10		
CS(=O)(=O)c1sc(C2CCCCC2)nc1S(=O)(=O)c1ccc(Cl)cc1 [BC19641]	> 10	> 10		
COCC[S+]([O-])c1sc(C2CCCCC2)nc1S(=O)(=O)c1ccc(Cl)cc1 (centres unmarked) [BC19642]	> 10	> 10		
Cn1c(-c2ccccc2)nc(S(=O)(=O)c2ccc(F)cc2)c1[S+](C)[O-] (centres unmarked) [BC19644]	> 10	> 10		
CCC[S+]([O-])c1sc(C2CCCCC2)nc1S(=O)(=O)c1ccc(Cl)cc1 (centres unmarked) [BC19645]	> 10	> 10		
